{"source": "paper PMC3190057", "about": "(Food and chemical toxicology : an international journal …, 2011)", "key": {"P-gp [1]": {"test_system": "P-gp", "test": "Immunofluorescence staining and imaging of membrane P-gp", "type": "cell-based, human", "conditions": "LS-180 cells, 25 μM, 48 h, mean ± SD (n=4)"}, "P-gp [2]": {"test_system": "P-gp", "test": "In vitro induction of P-gp expression, Western blotting", "type": "cell-based, human", "conditions": "LS-180 cells, 25 μM, 48 h, Western blot densitometry, P-gp/β-actin"}, "P-gp [3]": {"test_system": "P-gp", "test": "in vitro", "conditions": "human"}, "P-gp [4]": {"test_system": "P-gp", "test": "P-gp functional activity, rhodamine 123 uptake with or without 100 μM verapamil", "conditions": "LS-180 cells; for increase in P-gp activity: 48 h; for Emax (fold ↑ in P-gp activity): Hill equation fit"}, "[5]": {"conditions": "human subjects, oral administration, cited from earlier work"}, "LS-180 cells": {"test_system": "LS-180 cells", "test": "Toxicity to LS-180 cells during the induction treatment", "type": "cell-based, human"}}, "note": "“And” between values parts separate entries of the source, which are not always exact repeats. Identical values can stand only once."}
{"smiles": "C[C@H]1[C@H](C)CC[C@]2(C(=O)O)CC[C@]3(C)C(=CC[C@@H]4[C@@]5(C)C[C@@H](O)[C@H](O)[C@@](C)(CO)[C@@H]5CC[C@]43C)[C@H]12", "note": "[asiatic acid, Asiatic acid]", "values": [{"measurement": "fold-increase in membrane P-gp expression compared to the control", "setting": "P-gp [1]", "value": "2.5 ± 0.95", "unit": "fold"}, {"measurement": "fold increase in the expression of P-gp protein compared to control", "setting": "P-gp [2]", "value": "2.3-3.0 fold and 2.6 fold"}, {"measurement": "EC50 at 48 h", "setting": "P-gp [3]", "value": 11.3, "unit": "µM"}, {"measurement": "increase in P-gp activity", "setting": "P-gp [4]; 25 μM", "value": "> 45", "unit": "%"}, {"measurement": "Emax (fold ↑ in P-gp activity)", "setting": "P-gp [4]", "value": 1.5, "unit": "fold"}]}
{"smiles": "C/C=C(/C=O)[C@@H](CC=O)CC(=O)OCCc1ccc(O)cc1", "note": "[oleocanthal, (-)-Oleocanthal]", "values": [{"measurement": "fold-increase in membrane P-gp expression compared to the control", "setting": "P-gp [1]", "value": "9.3 ± 0.37", "unit": "fold"}, {"measurement": "fold increase in the expression of P-gp protein compared to control", "setting": "P-gp [2]", "value": "2.3-3.0 fold and 2.3 fold"}, {"measurement": "EC50 at 48 h", "setting": "P-gp [3]", "value": 14, "unit": "µM"}, {"measurement": "Emax (fold ↑ in P-gp activity)", "setting": "P-gp [4]", "value": 4.5, "unit": "fold"}]}
{"smiles": "CO[C@H]1/C=C/O[C@@]2(C)Oc3c(C)c(O)c4c(O)c(c(/C=N/N5CCN(C)CC5)c(O)c4c3C2=O)NC(=O)/C(C)=C\\C=C\\[C@H](C)[C@H](O)[C@@H](C)[C@@H](O)[C@@H](C)[C@H](OC(C)=O)[C@@H]1C", "note": "[rifampicin, Rifampicin, reference compound]", "values": [{"measurement": "fold increase in the expression of P-gp protein compared to control", "setting": "P-gp [2]", "value": 5, "unit": "fold"}, {"measurement": "decrease in digoxin area under the plasma curve (AUC)", "setting": "[5]; ref Greiner et al., 1999", "value": 30, "unit": "%"}, {"measurement": "decrease in risperidone area under the plasma curve (AUC)", "setting": "[5]; ref Kim et al., 2008", "value": 51, "unit": "%"}, {"measurement": "EC50 at 48 h", "setting": "P-gp [3]", "value": 26.8, "unit": "µM"}, {"measurement": "increase in P-gp activity", "setting": "P-gp [4]; 5 μM", "value": 180, "unit": "%"}, {"measurement": "increase in P-gp activity", "setting": "P-gp [4]; 25 μM", "value": 230, "unit": "%"}, {"measurement": "Emax (fold ↑ in P-gp activity)", "setting": "P-gp [4]", "value": 4.4, "unit": "fold"}]}
{"smiles": "CC(C)=CCC/C(C)=C/CC/C(C)=C/CC[C@]1(C)CCc2cc(O)c(C)c(C)c2O1", "note": "[γ-tocotrienol, γ-Tocotrienol]", "values": [{"measurement": "concentration toxic to the cells", "setting": "LS-180 cells", "value": "> 25", "unit": "µM"}, {"measurement": "fold-increase in membrane P-gp expression compared to the control", "setting": "P-gp [1]", "value": "4.6 ± 0.39", "unit": "fold"}, {"measurement": "fold increase in the expression of P-gp protein compared to control", "setting": "P-gp [2]", "value": "2.3-3.0 fold and 2.5 fold"}, {"measurement": "EC50 at 48 h", "setting": "P-gp [3]; LS-180 cells, probe rhodamine 123 (1 μg/mL), with verapamil 100 μM", "value": 5.9, "unit": "µM"}, {"measurement": "increase in P-gp activity", "setting": "P-gp [4]; 10 μM", "value": "> 45", "unit": "%"}, {"measurement": "Emax (fold ↑ in P-gp activity)", "setting": "P-gp [4]", "value": 1.7, "unit": "fold"}]}
